The subject of this data set is CCRIS mutagenicity, Ames/micronucleus/aberration tests. Kind of data set: CCRIS mutagenicity studies.

The source made the active and inactive calls. No rule for the calls is given here.

As for `C/C=C/C=C/C`, the mutagenic call by setting is: (Test System: AMES SALMONELLA TYPHIMURIUM, Strain/Indicator: TA98, Metabolic Activation: NONE, Method: PREINCUBATION) “inactive; negative”; (Test System: AMES SALMONELLA TYPHIMURIUM, Strain/Indicator: TA98, Metabolic Activation: S-9, Method: PREINCUBATION) “inactive; negative”; (Test System: AMES SALMONELLA TYPHIMURIUM, Strain/Indicator: TA100, Metabolic Activation: NONE, Method: PREINCUBATION) “inactive; negative”; (Test System: AMES SALMONELLA TYPHIMURIUM, Strain/Indicator: TA100, Metabolic Activation: S-9, Method: PREINCUBATION) “inactive; negative”; (Test System: AMES SALMONELLA TYPHIMURIUM, Strain/Indicator: TA1535, Metabolic Activation: NONE, Method: PREINCUBATION) “inactive; negative”; (Test System: AMES SALMONELLA TYPHIMURIUM, Strain/Indicator: TA1535, Metabolic Activation: S-9, Method: PREINCUBATION) “inactive; negative”. The mutagenic call was “inactive; negative” (Test System: E.COLI, Strain/Indicator: WP2UVRA/PKM101, Metabolic Activation: NONE, Method: PREINCUBATION) and “inactive; negative” (Test System: E.COLI, Strain/Indicator: WP2UVRA/PKM101, Metabolic Activation: S-9, Method: PREINCUBATION).

As for `O=[N+]([O-])c1cc2ccccc2c2c([N+](=O)[O-])cccc12`, the mutagenic call is, setting by setting: (Test System: AMES SALMONELLA TYPHIMURIUM, Strain/Indicator: TA98(1,8-DNP6), Metabolic Activation: NONE, Method: STANDARD PLATE) “active; positive”; (Test System: AMES SALMONELLA TYPHIMURIUM, Strain/Indicator: TA98(NR), Metabolic Activation: NONE, Method: STANDARD PLATE) “active; positive”; (Test System: AMES SALMONELLA TYPHIMURIUM, Strain/Indicator: TA98, Metabolic Activation: NONE, Method: STANDARD PLATE) “active; positive”; (Test System: AMES SALMONELLA TYPHIMURIUM, Strain/Indicator: TA100, Metabolic Activation: NONE, Method: STANDARD PLATE) “active; positive”; (Test System: AMES SALMONELLA TYPHIMURIUM, Strain/Indicator: YG1021, Metabolic Activation: NONE, Method: STANDARD PLATE) “active; positive”; (Test System: AMES SALMONELLA TYPHIMURIUM, Strain/Indicator: YG1024, Metabolic Activation: NONE, Method: STANDARD PLATE) “active; positive”. In addition, the mutagenic call by setting is: (Test System: AMES SALMONELLA TYPHIMURIUM, Strain/Indicator: YG1026, Metabolic Activation: NONE, Method: STANDARD PLATE) “active; positive”; (Test System: AMES SALMONELLA TYPHIMURIUM, Strain/Indicator: YG1029, Metabolic Activation: NONE, Method: STANDARD PLATE) “active; positive”.

The values above are taken from PubChem BioAssay AID1259407 (Chemical Carcinogenesis Research Information System (CCRIS), 2018).
